# Target: T1, human α7 nAChR (Homo sapiens, UniProt P36544)
# T1 construct: expressed in transfected cells; host or cells: GH4C1 cells derived from rat pituitary (ATCC CCL-82.2)
# Experiment: Evaluation of PAM activity with human α7 nACh receptor stably expressing cells (aequorin luminescence, FDSS7000)
# Assay type: cell-based
# Settings: result in words; ratio of RLU (Max-Min) to control wells, ACh EC20
# From the text: Human α7 nAChR stably expressing cells were generated and cultured. In detail, GH4C1 cells derived from rat pituitary (cat#CCL-82.2, ATCC, USA) were used as a host cell. PcDNA3.1Zeo vector containing a nucleotide sequence encoding a protein GenBank BAC81731 and pcDNA3.1 vector containing human α7 nAChR gene (cat#V790-20, invitrogen, Carlsbad, Calif., USA) were transfected to the cells to give aequorins and human α7 nAChR stably expressing cells respectively. The aequorins and human α7 nAChR stably expressing cells were screened with Zeocin (cat#R25001, invitrogen, Carlsbad, Calif., USA) and Geneticin (cat #10131-027, invitrogen, Carlsbad, Calif., USA) respectively.
# The cells were cultured in F-10 Nutrient Mixture (Ham) medium (cat #11550-043, invitrogen, Carlsbad, Calif., USA) containing 2.5% fetal bovine serum (cat #2917354, ICN Biomedicals, Inc, USA), 15% inactivated horse serum (cat #26050-088, invitrogen, Carlsbad, Calif., USA), 1 μg/mL Geneticin, and 5 μg/mL Puromycin (cat #14861-84, invitrogen, Carlsbad, Calif., USA), in a Collagen Type 1-coated dish (cat #4030-010, iwaki, Tokyo, Japan). During the culture, the medium was replaced with fresh medium in every 2 to 3 days, and the cells were treated with TrypLE Express (cat #45604-021, invitrogen, Carlsbad, Calif., USA) to collect them in every 7 days. Thus, the cells were subcultured.
# 7 Days after subculturing, the cells were treated with TrypLE Express to collect them when they were about 80% confluent. The cells were suspended in a reaction medium containing Hanks (cat #14065-056, invitrogen, Carlsbad, Calif., USA)/20 mmol/L Hepes (cat #15630-080, invitrogen, Carlsbad, Calif., USA), Buffer (pH 7.4), F-10 Nutrient Mixture (Ham), and 0.1 mg/mL Geneticin, and the suspension was seeded in a 384-well plate (cat #781090, Greiner, Germany) at 20000 cells/25 μL per well.
# On the next day after seeding, Viviren (cat#E649X, Promega, Madison, Wis., USA) was added to the medium so that the final concentration could be 4 μmol/L (15 μL/well). The plates were centrifuged and then placed in the dark for 4 hours at room temperature.
# Each of the test compounds was dissolved in DMSO to prepare each test sample at a concentration of 1000-fold the final concentration. To the solution was added Hanks/20 mM HEPES/0.2% BSA (cat#A3803, Sigma, St. Louis, Mo., USA), and the concentration was adjusted to 6-fold the final concentration.
# FDSS7000 (Hamamatsu Photonics) was used to detect the luminescence signal evoked by α7 nAChR stimulation. The cells and a luminescent substrate were put on a plate, and the test sample was added thereto. […] After the addition of ACh, the luminescence signal (the central wavelength: 465 nm) was measured for 138 seconds to calculate RLU (Max-Min). The ratio of the RLU (Max-Min) of the test-compound-containing wells to that of the control wells was defined as PAM activity.
# T1 sequence (P36544 23-502): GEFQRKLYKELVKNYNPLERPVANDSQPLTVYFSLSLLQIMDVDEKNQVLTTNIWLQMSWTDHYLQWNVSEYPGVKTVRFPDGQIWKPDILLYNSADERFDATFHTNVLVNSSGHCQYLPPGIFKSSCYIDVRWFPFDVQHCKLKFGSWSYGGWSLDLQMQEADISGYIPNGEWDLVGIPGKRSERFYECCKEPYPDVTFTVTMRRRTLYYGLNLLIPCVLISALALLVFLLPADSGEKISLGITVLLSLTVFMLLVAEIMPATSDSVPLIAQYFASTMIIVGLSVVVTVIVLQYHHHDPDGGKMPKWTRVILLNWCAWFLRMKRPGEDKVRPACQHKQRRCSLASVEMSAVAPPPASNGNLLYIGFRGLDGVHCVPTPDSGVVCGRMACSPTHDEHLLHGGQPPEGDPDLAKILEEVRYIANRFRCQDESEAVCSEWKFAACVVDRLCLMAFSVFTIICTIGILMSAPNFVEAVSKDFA
row,SMILES,PAM activity for α7 nAChR
1,"CCc1ccc2c(cnn2[C@H]2CC[C@@H](NC(=O)C3CCC(F)(F)CC3)CC2)c1 [Example 4, N-(cis-4-(5-ethyl-1H-indazol-1-yl)cyclohexyl)-4,4-difluorocyclohexanecarboxamide]",stronger PAM activity than others
2,CCOc1ccc2c(cnn2C2CCN(C(=O)NC3CCCC3)CC2)c1 [Example 17],stronger PAM activity than others
3,CCc1ccc2c(cnn2C2CCN(C(=O)NC3CCC(F)(F)CC3)CC2)c1 [Example 23],stronger PAM activity than others

# Next, values leading:
row,PAM activity for α7 nAChR,SMILES
1,stronger PAM activity than others,"Cc1ccc2c(cnn2C2CCN(C(=O)NC3CCCCC3)CC2)c1 [Example 8, N-cyclohexyl-4-(5-methyl-1H-indazol-1-yl)piperidine-1-carboxamide]"
2,stronger PAM activity than others,"Cc1ccc2c(cnn2C2CCN(C(=O)NC3CCC(F)(F)CC3)CC2)c1 [Example 13, N-(4,4-difluorocyclohexyl)-4-(5-methyl-1H-indazol-1-yl)piperidine-1-carboxamide]"
3,stronger PAM activity than others,"CCOc1ccc2c(cnn2C2CCN(C(=O)NC3CCCCC3)CC2)c1 [Example 18, N-cyclohexyl-4-(5-ethoxy-1H-indazol-1-yl)piperidine-1-carboxamide]"
4,stronger PAM activity than others,CCc1ccc2c(cnn2C2CCN(C(=O)NC3CCCC3)CC2)c1 [Example 20]
5,stronger PAM activity than others,COc1ccc2c(cnn2C2CCN(C(=O)NC3CCCCC3)CC2)c1 [Example 40]
6,stronger PAM activity than others,"COc1ccc2c(cnn2C2CCN(C(=O)NC3CCC(F)(F)CC3)CC2)c1 [Example 41, N-(4,4-difluorocyclohexyl)-4-(5-methoxy-1H-indazol-1-yl)piperidine-1-carboxamide]"

# Same assay, conditions: test compound 10 μmol/L; ACh added at EC20; ratio of RLU (Max-Min) of test wells to control wells
row,SMILES,α7PAM (%) @ 10 μmol/L [%]
1,Cc1ccc2c(cnn2C2CCN(C(=O)NC3CCCC3)CC2)c1 [Example 7],1044
2,Cc1ccc2c(cnn2C2CCN(C(=O)NC3CCOC(C)(C)C3)CC2)c1 (stereo not drawn) [Example 12],231
3,CC(C)c1ccc2c(cnn2C2CCN(C(=O)NC3CCOCC3)CC2)c1 [Example 14],728
4,CCOc1ccc2c(cnn2C2CCN(C(=O)NC3CCCC3)CC2)c1 [Example 17],2469
5,CCc1ccc2c(cnn2C2CCN(C(=O)NC3CCOC(C)(C)C3)CC2)c1 (stereo not drawn) [Example 21],523
6,CCc1ccc2c(cnn2C2CCN(C(=O)NC3CCOCC3)CC2)c1 [Example 24],745
7,COCCCc1ccc2c(cnn2C2CCN(C(=O)NC3CCC(F)(F)CC3)CC2)c1 [Example 26],521
8,COC1CCC(NC(=O)N2CCC(n3ncc4cc(F)ccc43)CC2)CC1 (stereo not drawn) [Example 29],206
9,CCOc1ccc2c(cnn2C2CCN(C(=O)N[C@H]3CC[C@H](OC)CC3)CC2)c1 [Example 30],908
10,COC1CCC(NC(=O)N2CCC(n3ncc4c(C5CC5)cccc43)CC2)CC1 (stereo not drawn) [Example 37],481
11,O=C(NC1CCC(F)(F)CC1)N1CCC(n2ncc3ccccc32)CC1 [Example 38],1101
12,CCc1nn(C2CCN(C(=O)NC3CCOCC3)CC2)c2ccc(C)cc12 [Example 43],528
13,CCO[C@H]1CC[C@H](NC(=O)N2CCC(n3ncc4c(C5CC5)cccc43)CC2)CC1 [Example 44],322
14,COC1CCC(NC(=O)N2CCC(n3ncc4cc(OC(C)C)ccc43)CC2)CC1 (stereo not drawn) [Example 47],375
15,CCN(C(=O)N1CCC(n2ncc3ccccc32)CC1)C1CCC(OC)CC1 (stereo not drawn) [Example 51],295
16,CCc1nn(C2CCN(C(=O)NC3CCC(F)(F)CC3)CC2)c2ccccc12 [Example 53],309
17,COC1CCC(NC(=O)N2CCC(n3nc(C4CCOCC4)c4cc(C)ccc43)CC2)CC1 (stereo not drawn) [Example 55],603

# Continued, values first:
row,α7PAM (%) @ 10 μmol/L [%],SMILES
1,306,CCOc1ccc2c(cnn2C2CCN(C(=O)NC3CCOCC3)CC2)c1 [Example 19]
2,2215,CCc1ccc2c(cnn2C2CCN(C(=O)NC3CCCC3)CC2)c1 [Example 20]
3,1191,COCCCc1ccc2c(cnn2C2CCN(C(=O)NC3CCCC3)CC2)c1 [Example 31]
4,430,COCCCc1ccc2c(cnn2C2CCN(C(=O)N[C@H]3CC[C@H](OC)CC3)CC2)c1 [Example 32]
5,411,COC1CCC(NC(=O)N2CCC(n3ncc4cc(Cl)ccc43)CC2)CC1 (stereo not drawn) [Example 35]
6,1892,O=C(NC1CCCCC1)N1CCC(n2ncc3ccccc32)CC1 [Example 39]
7,3205,COc1ccc2c(cnn2C2CCN(C(=O)NC3CCCCC3)CC2)c1 [Example 40]
8,429,CC(C)Oc1ccc2c(cnn2C2CCN(C(=O)NC3CCCC3)CC2)c1 [Example 49]
9,657,COCc1ccc2c(cnn2C2CCN(C(=O)NC3CCC(F)(F)CC3)CC2)c1 [Example 54]

# Same assay, conditions: test compound 10 μmol/L; ACh added at EC20; ratio of RLU (Max-Min) of test wells to control wells; read-out: α7PAM (%) @ 10 μmol/L
row,SMILES,activity at 10 µM [%]
1,"CCOc1nn(C2CCN(C(=O)NC3CCOCC3)CC2)c2ccc(CC)cc12 [Example 2, 4-(3-ethoxy-5-ethyl-1H-indazol-1-yl)-N-(tetrahydro-2H-pyran-4-yl)piperidine-1-carboxamide]",625
2,"CCOc1ccc2c(cnn2C2CCN(C(=O)C3CCC(F)(F)CC3)CC2)c1 [Example 3, (4,4-difluorocyclohexyl)(4-(5-ethoxy-1H-indazol-1-yl)piperidin-1-yl)methanone]",512
3,"CCc1ccc2c(cnn2[C@H]2CC[C@@H](C(=O)NC3CCC(F)(F)CC3)CC2)c1 [Example 6, cis-N-(4,4-difluorocyclohexyl)-4-(5-ethyl-1H-indazol-1-yl)cyclohexanecarboxamide]",285
4,"COCc1nn(C2CCN(C(=O)NC3CCC(F)(F)CC3)CC2)c2ccc(C)cc12 [Example 36, N-(4,4-difluorocyclohexyl)-4-(3-(methoxymethyl)-5-methyl-1H-indazol-1-yl)piperidine-1-carboxamide]",897
5,"CCc1nn(C2CCN(C(=O)NC3CCC(F)(F)CC3)CC2)c2ccc(C)cc12 [Example 42, N-(4,4-difluorocyclohexyl)-4-(3-ethyl-5-methyl-1H-indazol-1-yl)piperidine-1-carboxamide]",241
6,"CC(C)Oc1ccc2c(cnn2C2CCN(C(=O)NC3CCC(F)(F)CC3)CC2)c1 [Example 46, N-(4,4-difluorocyclohexyl)-4-(5-isopropoxy-1H-indazol-1-yl)piperidine-1-carboxamide]",544
7,"Cc1ccc2c(c1)c(C1CCOCC1)nn2C1CCN(C(=O)NC2CCC(F)(F)CC2)CC1 [Example 52, N-(4,4-difluorocyclohexyl)-4-(5-methyl-3-(tetrahydro-2H-pyran-4-yl)-1H-indazol-1-yl)piperidine-1-carboxamide]",366

# Continued, values first:
row,activity at 10 µM [%],SMILES
1,340,"O=C(NC1CCC(F)(F)CC1)N1CCC(n2ncc3cc(F)ccc32)CC1 [Example 28, N-(4,4-difluorocyclohexyl)-4-(5-fluoro-1H-indazol-1-yl)piperidine-1-carboxamide]"
2,430,"O=C(NC1CCCC1)N1CCC(n2ncc3cc(Cl)ccc32)CC1 [Example 33, 4-(5-chloro-1H-indazol-1-yl)-N-cyclopentylpiperidine-1-carboxamide]"
3,445,"O=C(NC1CCC(F)(F)CC1)N1CCC(n2ncc3cc(Cl)ccc32)CC1 [Example 34, 4-(5-chloro-1H-indazol-1-yl)-N-(4,4-difluorocyclohexyl)piperidine-1-carboxamide]"

# From patent publication US8765786B2, “1-substituted indazole derivative” (Dainippon Sumitomo Pharma Co., Ltd., priority 2012, dated 2014)
